Source: patent publication US20160318856A1, “Substituted Urea eIF2alpha Kinase Activators” (THE BRIGHAM AND WOMEN'S HOSPITAL, INC., priority 2013, published 2016)

Experiments:
Assay type in all cases: cell-based
RAMOS = test: cell proliferation assay, RAMOS; details: Homo sapiens, Lymphoma
Protocol: (§1) Cells were seeded in 96-well plates and maintained for 5 days in the presence of 0.5 to 20 μM of individual compound, and cell proliferation was measured by the sulforhodamine B (SRB) assay as described previously (see, for example, Palakurthi, S. S. et al. Cancer Research 2000, 60(11), 2919-2925). Briefly, at the end of a 5-day treatment, cells were fixed in 10% cold trichloroacetic acid. Cell number was estimated by measuring the remaining bound dye of sulforhodamine B after washing. The percentage of growth was calculated by using the equation: 100×[(T−T0)/(C−T0)], where T and C represent the absorbance in treated and control cultures at Day 5, and T0 at time zero, respectively. If T is less than T0, cell death has occurred and can be calculated from 100×[(T−T0)/T0].

HEP B3 = test: cell proliferation assay, HEP B3; details: HEP B3, Liver
Protocol: as §1

PC-3 = test: cell proliferation assay, PC-3; details: Homo sapiens; PC-3, Prostate
Protocol: as §1

HT-29 = test: cell proliferation assay, HT-29; details: Homo sapiens; HT-29, Colon
Protocol: as §1

[1] = tested on: MCF-7 human breast cancer cells; test: cell proliferation assay, MCF-7; details: MCF7, MCF-7, Breast
Protocol: as §1

[2] = tested on: CRL-2813 human melanoma cancer cells transfected with HRI-targeting or non-targeting siRNA; test: cell proliferation (SRB) assay after HRI knockdown; details: CRL-2813 cells, FIG. 10
Protocol: as §1
Cell proliferation is a meaningful read-out for determining the specificity of a compound as it captures both on-target and off-target effects of the compound under study. […] If these compounds specifically activate HRI and this activity is required for the inhibition of cell proliferation, then reducing the expression of HRI should blunt their effect on cell proliferation. For this purpose, expression of HRI was knocked down in CRL-2813 human melanoma (about 70% knockdown efficiency) and MCF-7 human breast cancer cells (about 90% knockdown efficiency). These two cell lines were chosen because the HRI knockdown efficiency is lower in CRL-2813 than in MCF-7 cells providing a sort of dose-response data that correlates knockdown efficiency with the resistance of cells to inhibition of cell proliferation. […] Referring to FIG. 5A, CRL-2813 human melanoma cancer cells, and (FIG. 5B) MCF-7 human breast cancer cells were transfected with HRI targeted or non-targeted siRNA, treated with the indicated concentrations of I-6p and cell proliferation was measured by SRB assay. Calculated IC50 for all four compounds tested in CRL-2813 human melanoma cancer cells and MCF-7 human breast cancer cells transfected with non-target siRNA control (NTC) or HRI is shown in FIG. 5C and FIG. 5D, respectively. The experiment was conducted in triplicate and each experiment was independently performed three times. Data are shown as Mean±S.E.M. *NTC=non-target siRNA control.
Referring to FIG. 8, CRL-2813 human melanoma cancer cells were transfected with HRI targeted or non-targeted siRNA, treated with the indicated concentrations of (A) I-14, (B) I-15, (C) III-4 and (D) III-5 and cell proliferation was measured by SRB assay. Calculated IC50 for all four compounds tested in CRL-2813 human melanoma cancer cells transfected with non-target siRNA control (NTC) or HRI is shown in (E). The experiment was conducted in triplicate and each experiment was independently performed three times. Data are shown as Mean±S.E.M. *NTC=non-target siRNA control, IC50=effective dose of drug that inhibit cell proliferation by 50%.
In general, if the affinity of compounds for their molecular target is increased this should result in higher specificity of the compounds in the cell proliferation assay. […] These five compounds, two with average and three with high potency, were tested in cell proliferation assay using CRL-2813 cells transfected with non-targeted siRNA or HRI-targeted siRNA as described above.

IC50 (RAMOS): 800 nM
IC50 (PC-3): 2900 nM
IC50 (HT-29): 2700 nM
IC50 [1]: 1300 nM
fold higher IC50 values in cells transfected with HRI-targeting siRNA vs. non-targeting siRNA [2]: ~6 fold
SMILES: O=C(Nc1cccc(C(F)(F)F)c1)NC1CCC(Oc2ccc(OC(F)(F)F)cc2)CC1 (stereo not drawn) [Compound I-17, 1-(4-(4-(trifluoromethoxy)phenoxy)cyclohexyl)-3-(3-(trifluoromethyl)phenyl)urea]
IC50 (HEP B3): 1800 nM
